Data from PubChem BioAssay (NCI).
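Assay format: 96-well plates, 48-hour exposure. Abbreviation: GI50, concentration required for 50% inhibition of growth. The concentration for full growth arrest is given as TGI.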

Legend:
Test in all cases: NCI-60 cell line screen, 48 h
EKVX NSCLC = tested on: EKVX NSCLC
IGROV1 ovarian = tested on: IGROV1 ovarian
NCI/ADR-RES ovarian = tested on: NCI/ADR-RES ovarian
OVCAR-8 ovarian = tested on: OVCAR-8 ovarian
A549 NSCLC = tested on: A549 NSCLC
CCRF-CEM leukemia = tested on: CCRF-CEM leukemia
M14 melanoma = tested on: M14 melanoma
SK-MEL-28 melanoma = tested on: SK-MEL-28 melanoma
U251 CNS = tested on: U251 CNS
SF-268 CNS = tested on: SF-268 CNS

Row | Structure (SMILES) | GI50 (EKVX NSCLC) | TGI (EKVX NSCLC) | GI50 (IGROV1 ovarian) | TGI (IGROV1 ovarian) | GI50 (NCI/ADR-RES ovarian) | TGI (NCI/ADR-RES ovarian) | GI50 (OVCAR-8 ovarian) | TGI (OVCAR-8 ovarian) | GI50 (A549 NSCLC) | TGI (A549 NSCLC) | GI50 (CCRF-CEM leukemia) | TGI (CCRF-CEM leukemia) | GI50 (M14 melanoma) | TGI (M14 melanoma) | GI50 (SK-MEL-28 melanoma) | TGI (SK-MEL-28 melanoma) | GI50 (U251 CNS) | TGI (U251 CNS) | GI50 (SF-268 CNS) | TGI (SF-268 CNS)
1 | C/C(=N\Nc1ccc(Cl)cn1)c1ccc2ccccc2n1 | 2.6 µM | > 100 µM | 2.88 µM | > 100 µM | 2.16 µM | > 100 µM | 3.04 µM | > 100 µM | 4.22 µM | > 100 µM | 0.513 µM | > 100 µM | 2.39 µM | 13.7 µM | 3.6 µM | > 100 µM | 2.83 µM | > 100 µM | 2.75 µM | > 100 µM
2 | CCCCC(CC)COC(=O)C[N+](C)(C)CCOC(c1ccccc1)c1ccccc1 (stereo not drawn) | 3.76 µM | 15.9 µM | 1.82 µM | 3.58 µM | 23.5 µM | 70.3 µM | 4.02 µM | 17.5 µM | 17.8 µM | 38.9 µM | 3.17 µM | 11.7 µM | 1.63 µM | 3.23 µM | 1.8 µM | 3.31 µM | 1.87 µM | 3.81 µM | 2.01 µM | 4.77 µM
3 | c1ccc(Sc2ccc(Cc3nc4cc5ccccc5cc4[nH]3)cc2)cc1 | 12.5 µM | > 100 µM | 27.1 µM | > 100 µM | 15.5 µM | > 62.7 µM | 7.46 µM | > 92.1 µM | 2.33 µM | > 61.4 µM | 1.42 µM | > 59 µM | 21 µM | > 74.5 µM | 37.7 µM | > 100 µM | 3.68 µM | > 57.9 µM | 8.48 µM | > 100 µM
4 | CCCCCCCCCCCCCCCC(=O)OCC(C[As](=O)(O)O)OC(=O)CCCCCCCCCCCCCCC (stereo not drawn) |  | > 100 µM |  | > 100 µM |  | > 100 µM |  | > 100 µM |  | > 100 µM |  | > 100 µM |  | > 100 µM |  | > 100 µM |  | > 100 µM |  | > 100 µM
5 | COc1cc2c3c(n(CCCN)c(=O)c2cc1OC)-c1ccc(C#N)cc1C3=O | 19 µM | 41.9 µM | 8.79 µM | > 100 µM | 48 µM | > 100 µM | 5.54 µM | 24.9 µM | 5.53 µM | 22.1 µM | 6.44 µM | 31.7 µM | 15.3 µM | 31.6 µM | 18.5 µM | 35.7 µM | 13 µM | 28.4 µM | 14.7 µM | 42.4 µM
6 | CN1CCN(CCCNc2nc3ccc(Oc4ccc(NC(=O)Nc5cc(C(F)(F)F)ccc5F)cc4)cc3[nH]2)CC1 | 6.69 µM | > 25 µM | 9.62 µM | > 23.9 µM | > 25 µM | > 25 µM | 5.27 µM | 13.5 µM | 4.31 µM | 8.08 µM | 4.96 µM | 10.8 µM | 4.54 µM | 8.61 µM | 4.24 µM | 7.73 µM | 3.86 µM | 7.38 µM | 4.17 µM | 8.04 µM
7 | NS(=O)(=O)c1ccc(-c2ccc3c(NC(=O)C4CC4)n[nH]c3c2)cc1 | > 25 µM | > 25 µM | > 25 µM | > 25 µM | > 25 µM | > 25 µM | > 25 µM | > 25 µM | > 25 µM | > 25 µM | > 25 µM | > 25 µM | > 25 µM | > 25 µM | > 25 µM | > 25 µM | > 25 µM | > 25 µM | > 25 µM | > 25 µM
8 | CN(C)CCNc1ccc(CO)c2oc3ccc(O)cc3c(=O)c12 |  | 47.5 µM |  | 57.2 µM |  | 74.3 µM |  | 14.4 µM |  | 63.9 µM |  | 34.1 µM |  | 29.5 µM |  | 32 µM |  | 45.7 µM |  | 42.2 µM
9 | CC1=C(/C=C/Cl)CC(Cl)C(C)(Cl)C1 (stereo not drawn) |  | > 100 µM |  | > 100 µM |  | > 100 µM |  | > 100 µM |  | > 100 µM |  | 74.2 µM |  | > 100 µM |  | > 100 µM |  | > 100 µM |  | > 100 µM
10 | COc1ccc(-c2[nH]c3ccc(OC)cc3c2/C=C(\C#N)S(=O)(=O)c2ccccc2)cc1 | 3.21 µM | > 100 µM | 3.76 µM | > 45.9 µM | 0.479 µM | 9.22 µM | 2.97 µM | > 35.2 µM | 2.01 µM | > 68.3 µM | 0.894 µM | 6.19 µM | 0.494 µM | 18.2 µM | 0.765 µM | > 67.8 µM | 0.557 µM | > 100 µM | 1.56 µM | > 100 µM
11 | Nc1nc(Nc2cccnc2)sc1C(=O)c1ccccc1F | 2.6 µM | 13.9 µM | 2.17 µM | > 29.1 µM | 0.844 µM | 12.2 µM | 3.9 µM | > 100 µM | 3.16 µM | > 100 µM | 2.19 µM | > 21.9 µM | 4.64 µM | 20.2 µM | 4.13 µM | 22.3 µM | 2.71 µM | > 100 µM | 3.24 µM | 25.8 µM
12 | N#Cc1cc(-c2cc3ccccc3o2)oc1N | 2.83 µM | 14.1 µM | 1.76 µM | 6.35 µM | 3.71 µM | > 100 µM | 4.32 µM | > 100 µM | 3.7 µM | > 100 µM | 3.72 µM | 21.2 µM | 6.11 µM | 22 µM | 6.54 µM | 19.7 µM | 3.15 µM | 14.7 µM | 4.73 µM | 20.1 µM
13 | Cc1ccc(NC(=O)c2cccc(C(C)(C)C#N)c2)cc1Nc1ccc2ncn(C)c(=O)c2c1 | 3.74 µM | > 100 µM | 1.49 µM | > 100 µM | 4.12 µM | > 100 µM | 4.96 µM | > 100 µM | 8.16 µM | > 100 µM | 5.36 µM | > 100 µM | 0.019 µM |  | 0.0192 µM |  | 7.19 µM | > 100 µM | 6.01 µM | > 100 µM
